Test results published in US20200323833A1, “HYDROPHOBIC ACID ADDITION SALTS” (Theracaine LLC, priority 2017, published 2020).
Structures can show the parent of a compound that is named as a salt.

Experiments:
[1] = Pharmacokinetics of dry powder administered subcutaneously via dorsal incision (Example 5); assay type: in vivo, Sprague Dawley rats; details: dry powder 230, via dorsal incision, bupivacaine salt 149 vs lidocaine salt 226 mg/kg
Method: Terminal collections were performed via vena cava.
The test articles were drug compositions designated as Test Articles A and B, which were administered as a single subcutaneous dose via dorsal incision to female CD (Sprague Dawley) rats.
(§1) Ten (10) female, jugular vein catheterized (JVC) CD rats initially were assigned to two dose groups consisting of five animals per group.
(§2) Each test article was provided as a powder in an individual vial.

[2] = system: female Sprague-Dawley rats; details: rat, in vivo, sc
Method: (§3) Clinical observations were performed daily. […] Other characteristics observed included appearance of skin and fur, appearance of eyes and mucous membranes, urine and fecal output, and changes in locomotor behavior. The times of observation were approximately the same each day, and the date of each observation was recorded.
The vehicle was a hyaluronic acid vehicle. The animals received a single subcutaneous dose of the test article or vehicle delivered to the dorsal area of the animals.
In addition, dose sites were exposed for gross evaluation of residual test articles and local response to the injected materials.

[3] = system: female CD (Sprague Dawley) rats; details: rat, in vivo
Method: Clinical observations were performed daily.
as §1, §2

[4] = system: female Sprague Dawley (CD) rats; details: rat, in vivo, sc
Method: as §3
Animals were euthanized at the end of the study via carbon dioxide inhalation (CO2) followed by thoracotomy. Gross necropsy of the dose sites were performed and they were collected for histopathology. Photographs were taken for any observation of tissue or reaction to treatment. Carcasses were discarded without further examination.
Twenty (20) female, jugular vein catheterized (JVC) Sprague Dawley (CD) rats initially were assigned to four dose groups consisting of eight (Test Articles A and B) or two (Test Articles B and C) animals per group. The animals received a single subcutaneous dose of the test article delivered to the dorsal subcutaneum of the animals via a dorsal skin incision.
Test articles were provided as a powder in individual vials (Test Articles A and B), or as a solution (Test Articles C and D). On the day of testing, each animal's dose was individually calculated, weighed or measured, and recorded. […]

| Structure (SMILES) | Cmax compared to the lidocaine particles [1] | duration of release compared to the lidocaine particles ([1]; listed as bupivacaine particles) | duration of release compared to the lidocaine particles ([1]; listed as bupivaciane particles) | clinical observations [2] | tolerability of single subcutaneous dose administered through a dorsal incision [3] | vascularization surrounding the incision sites on the subcutaneous skin layers [4] |
| --- | --- | --- | --- | --- | --- | --- |
| CCCCN1CCCCC1C(=O)Nc1c(C)cccc1C (stereo not drawn) [Test Article B, Bupivacaine tridecafluorohexane-sulfonate salt 230] | lower | longer | significantly longer | – | – | – |
| CCN(CC)CC(=O)Nc1c(C)cccc1C.O=S(=O)(O)C(F)(F)C(F)(F)C(F)(F)C(F)(F)C(F)(F)C(F)(F)C(F)(F)C(F)(F)F [Test Article B] | – | – | – | slightly dehydrated and hypoactive | tolerated | slight to moderate |
